Columns and labels:
[1] = test system: chloride channels in the lens; details: organ culture, clinically relevant concentrations; cited from earlier work
[2] = test system: postmenopausal women (cataracts); assay: Phase 3 placebo-controlled clinical trial: cataract treatment-emergent signs and symptoms (TESS) events; type: in vivo, human
Experimental: A phase 3, multicenter, double-blind, placebo-controlled, randomized clinical trial was conducted. The trial included 7705 women (mean age 67 years old), who were an average of 19 years postmenopausal. These patients were randomly assigned to the following treatment protocol: raloxifene hydrochloride at 60 mg per day via oral administration, raloxifene at 120 mg per day, or placebo. The study was conducted for a period of 48 months. As a portion of the patient's overall evaluation, various clinical tests and parameters were measured at periodic intervals.
The following tables provide summaries of select cataract treatment-emergent signs and symptoms (“TESS”) events for various patient populations at the thirty-six and the forty-eight month mark of the clinical trial.

endometrium / uterus = details: clinical studies in women; cited from earlier work
[3] = All Randomized Patients, 36-Month Data, Rlx60 (60 mg per day oral), N = 2557
[4] = All Randomized Patients, 36-Month Data, Rlx120 (120 mg per day), N = 2572
[5] = All Randomized Patients, 48-Month Data, Rlx60 (60 mg per day oral), N = 2557
[6] = All Randomized Patients, 48-Month Data, Rlx120 (120 mg per day), N = 2572
[7] = Patients Not Reporting a Cataract-Related Current Condition at Baseline, 36-Month Data, Rlx60 (60 mg per day oral), N = 2394
[8] = Patients Not Reporting a Cataract-Related Current Condition at Baseline, 36-Month Data, Rlx120 (120 mg per day), N = 2418
[9] = Patients Not Reporting a Cataract-Related Current Condition at Baseline, 48-Month Data, Rlx60 (60 mg per day oral), N = 2385
[10] = Patients Not Reporting a Cataract-Related Current Condition at Baseline, 48-Month Data, Rlx120 (120 mg per day), N = 2408
[11] = Patients Reporting a Cataract-Related Current Condition at Baseline, 36-Month Data, Rlx60 (60 mg per day oral), N = 163
[12] = Patients Reporting a Cataract-Related Current Condition at Baseline, 36-Month Data, Rlx120 (120 mg per day), N = 154
[13] = Patients Reporting a Cataract-Related Current Condition at Baseline, 48-Month Data, Rlx60 (60 mg per day oral), N = 172
[14] = Patients Reporting a Cataract-Related Current Condition at Baseline, 48-Month Data, Rlx120 (120 mg per day), N = 164

CC/C(=C(\c1ccccc1)c1ccc(OCCN(C)C)cc1)c1ccccc1 [tamoxifen]
Effect on chloride channels [1]: blocked chloride channels

Cl.O=C(c1ccc(OCCN2CCCCC2)cc1)c1c(-c2ccc(O)cc2)sc2cc(O)ccc12 [Rlx, [2-(4-hydroxyphenyl)-6-hydroxybenzo[b]thie-3-yl][4-[2-(1-piperidenyl)ethoxy]phenyl]methanone hydrochloride]
Dose dependence of the trend in cataract events ([2]; 120 mg per day vs 60 mg per day vs placebo): dose dependent
Risk of cataracts (adverse events relating to cataracts) as compared to placebo ([2]; 7705 postmenopausal women, 60 or 120 mg per day, 48 months): trend toward decreasing risk of cataracts
"Cataract Specified" event, number of patients [2, 3]: 92
"Cataract Specified" event, percent of patients [2, 3]: 3.6%
Any Cataract-related event, number of patients [2, 3]: 105
Any Cataract-related event, percent of patients [2, 3]: 4.1%
Surgery for cataract, number of patients [2, 3]: 60
Surgery for cataract, percent of patients [2, 3]: 2.3%
"Cataract Specified" event, number of patients [2, 4]: 82
"Cataract Specified" event, percent of patients [2, 4]: 3.2%
Any Cataract-related event, number of patients [2, 4]: 101
Any Cataract-related event, percent of patients [2, 4]: 3.9%
Surgery for cataract, number of patients [2, 4]: 60
Surgery for cataract, percent of patients [2, 4]: 2.3%
"Cataract Specified" event, number of patients [2, 5]: 135
"Cataract Specified" event, percent of patients [2, 5]: 5.3%
Any Cataract-related event, number of patients [2, 5]: 151
Any Cataract-related event, percent of patients [2, 5]: 5.9%
Surgery for cataract, number of patients [2, 5]: 85
Surgery for cataract, percent of patients [2, 5]: 3.3%
"Cataract Specified" event, number of patients [2, 6]: 122
"Cataract Specified" event, percent of patients [2, 6]: 4.7%
Any Cataract-related event, number of patients [2, 6]: 140
Any Cataract-related event, percent of patients [2, 6]: 5.4%
Surgery for cataract, number of patients [2, 6]: 78
Surgery for cataract, percent of patients [2, 6]: 3.0%
Any Cataract-related event, number of patients [2, 7]: 80
Any Cataract-related event, percent of patients [2, 7]: 3.3%
Any Cataract-related event, number of patients [2, 8]: 83
Any Cataract-related event, percent of patients [2, 8]: 3.4%
Any Cataract-related event, number of patients [2, 9]: 120
Any Cataract-related event, percent of patients [2, 9]: 5.0%
Any Cataract-related event, number of patients [2, 10]: 115
Any Cataract-related event, percent of patients [2, 10]: 4.8%
Any Cataract-related event, number of patients [2, 11]: 25
Any Cataract-related event, percent of patients [2, 11]: 15.3%
Any Cataract-related event, number of patients [2, 12]: 18
Any Cataract-related event, percent of patients [2, 12]: 11.7%
Any Cataract-related event, number of patients [2, 13]: 31
Any Cataract-related event, percent of patients [2, 13]: 18.0%
Any Cataract-related event, number of patients [2, 14]: 25
Any Cataract-related event, percent of patients [2, 14]: 15.2%
Endometrial cancer (endometrium / uterus): has not been associated with endometrial cancer
Endometrial stimulation (endometrium / uterus): not associated with endometrial stimulation

From US20040087572A1, “Method for inhibiting cataracts” (priority 2003, published 2004)
